Consider two substances from patent US5601992A, “Peptide library formats and methods relating thereto” (Bunsen Rush Laboratories, Inc., priority 1994, dated 1997).

For assay [1], the system named is melanophore cells. The assay is described as follows: Pigment dispersion assay with a-MSH- and control-peptide-coated beads on a dish plated with melanophore cells. The class given is cell-based. As to conditions: TFA-treated beads on agarose gel with 20 nM melantonin; ten and 30 minutes after placement. As to the method:
a-MSH and its congener peptide (cp) were screened using a culture dish plated with melanophore cells. Melanophores were maintained in cell culture as previously described (A. Daniolos, et al., Pigment Cell Res. 3, 38 (1990); M. N. Potenza, M. R. Lerner, Pigment Cell Res. 4, 186 (1991)). Four million cells were seeded into a 100 mm tissue culture plate (actual internal diameter was 85 mm) in 20 mL of frog fibroblast conditioned media and incubated at 27° C. for 72 h. For an experiment, the media was removed from the dish and replaced with 9 mL of 0.9% Sea Plaque Agarose (FMC Corporation) prepared in fibroblast conditioned media containing 20 nM melantonin. The plate was then placed in the dark for thirty min, after which beads coated with a-MSH or the cp, were sprinkled on the agarose bed and the pigment dispersion response was monitored by photography.

The target in assay [2] is T1, murine bombesin receptor (Mus musculus, UniProt P21729).
T1 construct: expressed in transfected cells; host or cells: melanophores (frog; cultured as in Potenza & Lerner), transfected by electroporation with pJG3.6BR
T1 sequence (P21729 whole entry): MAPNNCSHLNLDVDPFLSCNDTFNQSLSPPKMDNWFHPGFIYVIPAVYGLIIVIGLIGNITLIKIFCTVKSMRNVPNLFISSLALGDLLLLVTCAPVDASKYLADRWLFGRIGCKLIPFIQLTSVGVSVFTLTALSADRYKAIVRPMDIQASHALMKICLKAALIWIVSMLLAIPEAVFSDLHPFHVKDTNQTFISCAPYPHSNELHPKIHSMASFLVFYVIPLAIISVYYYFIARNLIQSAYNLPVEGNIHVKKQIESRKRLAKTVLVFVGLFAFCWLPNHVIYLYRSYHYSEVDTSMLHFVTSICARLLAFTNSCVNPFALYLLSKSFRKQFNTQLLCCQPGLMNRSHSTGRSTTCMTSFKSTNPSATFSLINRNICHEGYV
Nature of the assay: Screening of bead-released peptides (MPL) on agarose-overlaid melanophores expressing the bombesin receptor; pigment dispersion. As to conditions: TFA-gas-cleaved beads on agarose with 2 nM melantonin. The class given is cell-based. Here is the method: Melanophore cells (either transfected or non-transfected and as described in the above-identified patent application) were seeded (4×10^6)into 100 mm tissue culture plate (Falcon, N.J.). For transfected cells, the 100 mm tissue culture dishes were pre-coated with Cell-Tak (Collaborative Research, Inc., Massachusetts) at a concentration of […]. Media and conditions unless otherwise stated, were as described in the above-identified patent application. For wild type cells, no media changes are necessary and the cells can be used as soon as 24 hours after plating. For transfected cells, after the cells have attached to the surface (2-3 h), the media was removed and replaced with 20 ml of frog fibroblast conditioned media which is based on 70% L-15 media (Sigma) with 20% fetal bovine serum supplemented with L-Glutamine and Penicillin Streptomycin (Gibco). The cells were incubated at 27° C. for 12-72 h. Then 12-24 before the experiment, the media was removed and the cells were washed gently with 1×10 ml 70% EX-CELL 320 (JRH Biosciences, Kansas; 70% part A 29% water and 1% part B, hereinafter EX-CELL). […]
The bombesin MPL was screened for agonists using melanophore cells expressing the bombesin receptor. […] Pigment dispersion induced by peptide analogues were monitored by video image subtraction (McClintock, T., et al., Anal. Biochem. 209:298-305 (1993)). […]

Where no end group is shown, it is not given here.

For the substance “Ser-Lys-Glu-Arg-His-Ser-Trp-Tyr-NH2 (SKERHSWY-NH2) [cp, negative control peptide]”, the pigment dispersion response entry in assay [1] is recorded as “lack of a pigment dispersion response”.

Take litorin: the “pigment dispersion response of recombinant melanophores to peptide released from bead (agonist activity)” value in assay [2] is listed as “biological activity of the free peptide released from (but still coated on) the bead was confirmed”.
